Where two headings read alike, the source gives them in different places.
Experiments:
[1] = test system: zebrafish embryos
Method: (§1) Zebrafish embryos obtained and maintained as described previously for toxicity determination were used to determine (I) terato-carcinogenesis assayed as previously informed (Selderslaghs et al. [2009], [2012]) with modifications. In brief, embryos were incubated for 0 hpf up to 120 hpf in the presence and absence of tested compounds. Each condition was assayed in triplicate with 12 embryos per condition per replicate. The appearance of selected characteristics and malformations with respect to normal development were quantified for the eyes, otoliths, heart, circulation, hatching, skeletal deformities, and body position. For each concentration tested, we assessed the mortality and the presence of malformations at 24, 48, 72, 96, and 120 hpf using a light microscope. When possible, the lethal effects (LC50) and terato-carcinogenic effects (EC50) were determined using the ToxRat software. Based on these values, a teratogenic index (TI) was calculated as LC50/EC50. Based on previous studies, we considered a compound to be a teratogen when TI > 2 at 120 hpf. When no TI could be calculated due to no malformations induction to a degree extensive enough to calculate the EC50 in the presence of high toxicity, the compound was considered a non-teratogen. (II) Neurotoxicity was assayed by evaluating the locomotor activity in embryos exposed to the tested compounds from 0 to 120 hpf using Zebrabox and Zebralab (ViewPoint). We tested three concentrations (24 embryos per concentration) below the NOEC to avoid readily toxic concentrations. After incubation with tested compounds for 120 hs in 96-well plates, the activity of larvae in response to transitions from dark to light was evaluated. The protocol involved an initial 10 min acclimation period inside the Zebrabox, followed by three cycles of light–dark of 10 min each. After the end of each cycle, the integrated activity of each embryo was registered. Statistical analysis was done using ANOVA, followed by the Tukey post hoc test. Differences were considered significant when p < 0.05. Dead embryos were not considered in the analysis. (III) The endocrine-disrupting effect in zebrafish embryos was assayed by real-time PCR as previously reported (Jarque et al. [2019]) with modifications. In brief, 0 hpf embryos (12 embryos per condition in triplicate) were incubated with selected compounds for up to 120 hpf. After incubation, treated (embryos incubated at the concentration right below the NOEC) and control embryos were collected in RNA later and kept at − 20°C until use. RNA was extracted from the samples using the RNeasy Mini Kit (QIAGEN) and was followed by cDNA synthesis using random primers and the AffinityScript Multi Temperature cDNA Synthesis Kit (Agilent Technologies). Finally, real-time PCR was performed for eight target genes to obtain data on the estrogenic (cytochrome P450 family 19 subfamily A member 1: cyp19a1b, and vitellogenin: vtg1), androgenic (cytochrome P450 family 2 subfamily W member 1: cyp2k22, and cytosolic sulphotransferase 3: sult2st3), and thyroid hormone (thyroid peroxidase: tpo, thyroid hormone receptor alpha: tra, transthyretin: ttr, and iodothyronine deiodinase 2: dio2) effect of the tested compounds. Significant changes in gene expression between controls and treated samples were considered as a potential endocrine-disrupting effect.

[2] = test system: zebrafish embryos; remark: listed apart in the source
From the text: In REACH, most of the mammalian tests for chemical safety assessment are related to reproductive toxicity (ECHA [2020]; Rovida and Hartung [2009]; Sellick [2011]) and consider complex molecular and cellular mechanisms determined in long-term experiments with very low throughput. To avoid the use of animals and to assay reproductive toxicity in a relevant 'non-animal' model adhering to the 3Rs rule, we used zebrafish embryos up to 120 hpf. Up to this developmental stage, the embryos are not considered animals according to European legislation (Sellick [2011]). When they reach the stage of independent feeding, zebrafish embryos become subject to regulations for animal experimentation. We performed a set of previously described experiments to cover a wide range of potential reprotoxic effects, including terato-carcinogenesis, developmental neurotoxicity, and endocrine disruption.
as §1, with “Technologies).” for “Technologies). Finally, real-time PCR was performed for eight target genes to obtain data on the estrogenic (cytochrome P450 family 19 subfamily A member 1: cyp19a1b, and vitellogenin: vtg1), androgenic (cytochrome P450 family 2 subfamily W member 1: cyp2k22, and cytosolic sulphotransferase 3: sult2st3), and thyroid hormone (thyroid peroxidase: tpo, thyroid hormone receptor alpha: tra, transthyretin: ttr, and iodothyronine deiodinase 2: dio2) effect of the tested compounds. Significant changes in gene expression between controls and treated samples were considered as a potential endocrine-disrupting effect.”

[3] = real-time PCR, zebrafish embryos
[4] = second of two columns headed Neurotoxic
[5] = 0 to 120 hpf, teratogen when TI > 2

For CCCCC(CC)CN (stereo not shown) [2-Ethylhexylamine], the “Reprotoxicity (R) Neurotoxic” value ([1]; in vivo) was “No”, the “induction of cytochrome P450 2 K” value [1, 3] was “induced” and the induction of vitellogenin [1, 3] was “induced”. The “Reprotoxicity (R) Teratogen” value ([2]; in vivo) was “No”.
CNC(=O)c1cc(Cl)ccn1.Cl [4-Chloro-N-methylpyridine-2-carboxamide hydrochloride (1:1)] was tested, and the “Reprotoxicity (R) Endocrine disruptor” value ([1]; in vivo) was “No”, the “Reprotoxicity (R) Neurotoxic” value ([1]; in vivo) was “No” and the “Reprotoxicity (R) Experimental conclusion” value ([2]; in vivo) was “No”. The “Reprotoxicity (R) Teratogen” value ([2]; in vivo) was “No”.
For CCN(CC)c1ccc(N=Nc2c(Cl)cc([N+](=O)[O-])cc2[N+](=O)[O-])c(NC(C)=O)c1 [N-[2-[(2-chloro-4,6-dinitrophenyl)azo]-5-(diethylamino)phenyl]acetamide], the “induction of cytochrome P450 2 K” value [1, 3] was “induced”, the “Reprotoxicity (R) Neurotoxic” value [1, 4] was “No” and the “Reprotoxicity (R) Teratogen” value [2, 5] was “No”.
With O=C(OCCc1ccccc1)c1ccccc1 [Phenethyl benzoate] the “Reprotoxicity (R) Endocrine disruptor” value ([1]; in vivo) was “No”, the “Reprotoxicity (R) Neurotoxic” value ([1]; in vivo) was “No” and the “Reprotoxicity (R) Experimental conclusion” value ([2]; in vivo) was “No”. For the same compound, the “Reprotoxicity (R) Teratogen” value ([2]; in vivo) was “No”.
In the case of “Reaction mass of cis-4-(isopropyl) cyclohexanemethanol and trans-4-(isopropyl) cyclohexanemethanol”, the “Reprotoxicity (R) Endocrine disruptor” value ([1]; gene expression, 120 hpf, concentration right below NOEC) is reported as “No”, the “Reprotoxicity (R) Neurotoxic” value [1, 4] is reported as “No” and the “Reprotoxicity (R) Teratogen” value [2, 5] is reported as “No”. For the same compound, the “Reprotoxicity (R) Experimental conclusion” value ([2]; positive in any of the three assays) was “No”.

From publication PMC10025185, “A continuous in silico learning strategy to identify safety liabilities in compounds used in the leather and textile industry” (Archives of Toxicology, 2023)
